Where “and” joins values, the source holds several entries; their conditions need not be identical. Identical values can stand only once. Toxic doses and inconclusive results are not listed.
Test system: P388 leukemia ip, CD2F1 mice, survival T/C
Test: NCI In Vivo Anticancer Drug Screen. Data for tumor model P388 Leukemia (intraperitoneal) in CD2F1 (CDF1) mice
Settings: endpoint: median survival time, higher = longer survival
Summary of the method: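 Mice carrying the transplanted tumor received test compound or vehicle. Survival was recorded in each group, and the value is the treated-group measurement divided by that of the vehicle-treated control group.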

[1] = dose: 50.0 mg/kg/injection, schedule: Q01DX005 (ip), vehicle: saline with Tween-80
[2] = dose: 100.0 mg/kg/injection, schedule: Q01DX005 (ip), vehicle: saline with Tween-80
[3] = dose: 200.0 mg/kg/injection, schedule: Q01DX005 (ip), vehicle: saline with Tween-80
[4] = dose: 6.25 mg/kg/injection, schedule: Q01DX009 (ip), vehicle: saline
[5] = dose: 12.5 mg/kg/injection, schedule: Q01DX009 (ip), vehicle: saline
[6] = dose: 25.0 mg/kg/injection, schedule: Q01DX009 (ip), vehicle: saline
[7] = dose: 50.0 mg/kg/injection, schedule: Q01DX009 (ip), vehicle: saline
[8] = dose: 12.5 mg/kg/injection, schedule: Q01DX009 (ip), vehicle: saline with Tween-80
[9] = dose: 50.0 mg/kg/injection, schedule: Q01DX009 (ip), vehicle: saline with Tween-80
[10] = dose: 100.0 mg/kg/injection, schedule: Q01DX009 (ip), vehicle: saline
[11] = dose: 200.0 mg/kg/injection, schedule: Q01DX009 (ip), vehicle: saline
[12] = dose: 25.0 mg/kg/injection, schedule: Q01DX009 (ip), vehicle: saline with Tween-80

CN1C(c2ccccc2)CC(=NOCc2ccccc2)CC1c1ccccc1 (stereo unspecified)
T/C [1]: 98 % of control
T/C [2]: 96 % of control
T/C [3]: 89 % of control

Cc1ccc(C(=O)NNC(=O)Nc2cccc(Cl)c2C)cc1
T/C (dose: 50.0 mg/kg/injection, schedule: Q01DX009 (ip), vehicle: Klucel (hydroxypropylcellulose) (HPC)): 92 % of control
T/C (dose: 100.0 mg/kg/injection, schedule: Q01DX009 (ip), vehicle: Klucel (hydroxypropylcellulose) (HPC)): 89 % of control
T/C (dose: 200.0 mg/kg/injection, schedule: Q01DX009 (ip), vehicle: Klucel (hydroxypropylcellulose) (HPC)): 93 % of control

CCOC(=O)NC(C)CC(C)NC(=O)OCC (stereo unspecified)
T/C (dose: 50.0 mg/kg/injection, schedule: Q01DX001 (ip), vehicle: Klucel (hydroxypropylcellulose) (HPC)): 94 % of control
T/C (dose: 100.0 mg/kg/injection, schedule: Q01DX001 (ip), vehicle: Klucel (hydroxypropylcellulose) (HPC)): 92 % of control
T/C (dose: 200.0 mg/kg/injection, schedule: Q01DX001 (ip), vehicle: Klucel (hydroxypropylcellulose) (HPC)): 93 % of control

O=C1C=CC2=C3c4cc(O)c(O)cc4CC3(O)COC2=C1O (stereo unspecified)
T/C [4]: 102 % of control
T/C [5]: 108 % of control
T/C [6]: 118 % of control
T/C [7]: 108 % of control

CSC(=S)N/N=C(\c1ccccc1)c1ccccn1
T/C (dose: 6.25 mg/kg/injection, schedule: Q01DX009 (ip), vehicle: saline with Tween-80): 96 % of control
T/C [8]: 89 % of control and 97 % of control
T/C [9]: 92 % of control

CC1(C)COC(=O)/C1=C1\SC(=O)NC1=O
T/C (dose: 100.0 mg/kg/injection, schedule: Q04DX003 (ip), vehicle: saline): 95 % of control
T/C (dose: 200.0 mg/kg/injection, schedule: Q04DX003 (ip), vehicle: saline): 94 % of control
T/C (dose: 400.0 mg/kg/injection, schedule: Q04DX003 (ip), vehicle: saline): 102 % of control

COC(OC(CO)C(O)S(=O)(=O)O)C(O)S(=O)(=O)O (stereo unspecified)
T/C [4]: 100 % of control
T/C [5]: 105 % of control
T/C [6]: 118 % of control
T/C [7]: 173 % of control
T/C [10]: 155 % of control
T/C [11]: 157 % of control

ON=C(C1CC1)C1CC1
T/C [12]: 95 % of control
T/C [9]: 101 % of control
T/C (dose: 100.0 mg/kg/injection, schedule: Q01DX009 (ip), vehicle: saline with Tween-80): 104 % of control
T/C (dose: 200.0 mg/kg/injection, schedule: Q01DX009 (ip), vehicle: saline with Tween-80): 91 % of control

CCSC(=S)N=Nc1c(O)n(C)c2ccccc12
T/C [7]: 93 % of control
T/C [10]: 94 % of control

OCC(O)C(O)C1[O][Sb][O]C1CO (stereo unspecified)
T/C [1]: 100 % of control and 101 % of control
T/C [2]: 96 % of control and 100 % of control and 104 % of control
T/C [3]: 100 % of control and 96 % of control and 104 % of control

CC(CC1CCCCC1)NCCC(c1ccccc1)c1ccccc1 (stereo unspecified)
T/C (dose: 12.5 mg/kg/injection, schedule: Q01DX009 (ip), vehicle: Klucel (hydroxypropylcellulose) (HPC)): 116 % of control
T/C (dose: 25.0 mg/kg/injection, schedule: Q01DX009 (ip), vehicle: Klucel (hydroxypropylcellulose) (HPC)): 100 % of control

c1ccc(C[N+]23CCC(CC2)C3c2ccccc2)cc1 (stereo unspecified)
T/C (dose: 3.75 mg/kg/injection, schedule: Q01DX005 (ip), vehicle: saline): 103 % of control
T/C (dose: 7.5 mg/kg/injection, schedule: Q01DX005 (ip), vehicle: saline): 103 % of control
T/C (dose: 15.0 mg/kg/injection, schedule: Q01DX005 (ip), vehicle: saline): 104 % of control

CCC(c1ccc(OCCS(=O)(=O)Oc2ccc(C)cc2)cc1)C(CC)c1ccc(OCCS(=O)(=O)Oc2ccc(C)cc2)cc1 (stereo unspecified)
T/C [7]: 106 % of control
T/C [10]: 87 % of control
T/C [11]: 95 % of control

Cc1coc2c1CCC(C)C2 (stereo unspecified)
T/C [8]: 92 % of control
T/C [12]: 107 % of control
T/C [9]: 100 % of control and 110 % of control

O=C1CNC(=O)c2cc(N=Cc3ccccc3O)ccc2N1
T/C (dose: 100.0 mg/kg/injection, schedule: Q04DX003 (ip), vehicle: saline with Tween-80): 111 % of control
T/C (dose: 200.0 mg/kg/injection, schedule: Q04DX003 (ip), vehicle: saline with Tween-80): 114 % of control
T/C (dose: 400.0 mg/kg/injection, schedule: Q04DX003 (ip), vehicle: saline with Tween-80): 104 % of control

CN(C)C(CS(=O)(=O)c1ccccc1)c1ccccc1 (stereo unspecified)
T/C (dose: 60.0 mg/kg/injection, schedule: Q01DX005 (ip), vehicle: Klucel (hydroxypropylcellulose) (HPC)): 100 % of control
T/C (dose: 120.0 mg/kg/injection, schedule: Q01DX005 (ip), vehicle: Klucel (hydroxypropylcellulose) (HPC)): 91 % of control
T/C (dose: 240.0 mg/kg/injection, schedule: Q01DX005 (ip), vehicle: Klucel (hydroxypropylcellulose) (HPC)): 91 % of control

— PubChem BioAssay AID330 (DTP/NCI, 2004)
